Assay results: patent US20240209022A1, “NOVEL PEPTIDE HAVING ANTI-INFLAMMATORY AND TISSUE REGENERATIVE ACTIONS” (KOREA RESEARCH INSTITUTE OF BIOSCIENCE AND BIOTECHNOLOGY, priority 2020, published 2024)

How the values were obtained:
[1] = system: non-alcoholic hepatitis model; assay: High-fat diet-induced non-alcoholic steatohepatitis model, liver gene expression; assay type: in vivo, C57BL/6J mice; conditions: RT-qPCR; vs PBS buffer group
Protocol: A non-alcoholic hepatitis model was induced by feeding a high-fat diet to 8-week-old SPF male C57BL/6J mice. The experiment for groups administered with Amuc_1409 and PEP001 to PEP005 was performed as follows. Mice fed a high-fat diet for 45 weeks were fed a high-fat diet for an additional 3 weeks, and Amuc_1409 was dissolved in PBS buffer at a concentration of 2.4 μM and then orally administered to the mice by 150 μL per animal at the same time once a day until the end of the experiment, or mice fed a high-fat diet for 8 weeks were fed a high-fat diet for an additional 3 weeks, and PEP001, PEP002, PEP003, PEP004, or PEP005 was dissolved in PBS buffer at a concentration of 2.4 μM and then orally administered to the mice by 150 μL per animal at the same time once a day until the end of the experiment. To the control group, PBS buffer was orally administered in the same manner. The experiment for groups administered with PEP006 to PEP013 was performed as follows. The non-alcoholic hepatitis model was induced by ad libitum feeding of a high-fat diet for 32, 50, or 53 weeks. Mice fed a high-fat diet for 50 weeks were fed a high-fat diet for an additional 3 weeks, and a novel tetrapeptide PEP006, PEP007, PEP008, PEP009, or PEP010 was dissolved in PBS buffer at a concentration of 0.2 μg/150 μL and then orally administered to the mice by 150 μL per animal at the same time until the end of the test, and mice fed a high-fat diet for 53 weeks were fed a high-fat diet for an additional 3 weeks, and a novel […] PEP011, PEP012, or PEP013 was dissolved in PBS buffer at a concentration of 0.2 μg/150 μL and then orally administered to the mice by 150 μL per animal at the same time until the end of the test. To the control group, PBS buffer was orally administered in the same manner. At the end of the experiment, a part of the liver harvested was homogenized with Trizol to extract RNA. Reverse transcriptase was added to the obtained RNA and reacted to synthesize cDNA, and SYBR Green and primers were added to perform quantitative real-time PCR (RT-qPCR), and then the expression levels of genes such as Tnfα, Il-1β, Il-10, and Il-1rn were quantified.

[2] = system: animal model of muscle atrophy/muscle strength loss due to natural aging (geriatric sarcopenia); assay: Geriatric sarcopenia model (natural aging): muscle strength and muscle mass; assay type: in vivo, C57BL/6 mice; conditions: vs PBS buffer group; for grip strength: 11th week of administration, oral 0.2 μg/150 μL; for GC (gastrocnemius) muscle weight / TA (tibialis anterior) muscle weight / soleus muscle weight: after the experiment; for muscle strength (grip strength): oral
Protocol: The efficacy of the peptides was verified using an animal model of muscle atrophy/muscle strength loss due to natural aging (geriatric sarcopenia). At the time of administration of Amuc_1409, 80 to 83-week old C57BL/6 male mice were used. Amuc_1409 was dissolved in PBS buffer at a concentration of 2.4 μM and then orally administered to the mice by 150 μL per animal at the same time once a day for 32 weeks. To the control group, PBS buffer was orally administered in the same manner. At the 16th week of Amuc_1409 administration, aged mice were allowed to hold the wire net connected to the muscle strength probe of the grip strength meter with all four paws, and then the tail was carefully pulled backward to measure the maximum grip strength at the moment at which the mice held onto the wire net. For muscle weight, after administration, the gastrocnemius (GC), soleus, and tibialis anterior (TA) muscles from both hind paws of the aged mice of each group were carefully separated to avoid damage, and each weight was measured. Muscle weight versus body weight was calculated by correcting with the body weight of the mouse. After the end of the experiment, in order to analyze the size of muscle fibers in each group, TA muscles were fixed in 10% formalin, and frozen section samples (8 μm) were prepared to prepare slides. The prepared slides were washed with PBS buffer solution, permeabilized with 0.5% Triton X-100, blocked, and treated with primary antibody (anti-laminin). After 24 hours, a fluorescent secondary antibody (Alexa Fluor 488 Goat anti-rabbit IgG) was applied, and the slides were finally treated with DAPI for nuclear staining. The immunostained slides were subjected to photographing of muscle tissue using a confocal microscope. Using image analysis software (ImageInside), the distribution of cross-sectional area of muscle fibers was calculated for each size from a minimum of 500 μm^2 or less to 3500 μm^2 or more. Meanwhile, in order to examine the efficacy of Amuc_1409 as well as its fragments, 82- to 83-week-old C57BL/6 male mice were used. PEP001 was dissolved in PBS buffer at a concentration of 2.4 μM and then orally administered to the mice by 150 μL per animal at the same time once a day for 10 weeks. To the control group, PBS buffer was orally administered in the same manner. At the 10th week of PEP001 administration, the maximum grip strength and muscle weight were calculated in the same manner as the measurement in Amuc_1409. At the end of the experiment, a part of the GC muscle excised was homogenized with Trizol to extract RNA. Reverse transcriptase was added to the obtained RNA and reacted to synthesize cDNA, and SYBR Green and primers were added to perform quantitative real-time PCR (RT-qPCR). The gene expression level of insulin-like growth factor (IGF-1) involved in protein synthesis in muscle cells was then quantified. In addition, in order to confirm the efficacy of the novel tetrapeptides and tripeptides PEP006 to PEP013, the improvement efficacy on geriatric sarcopenia was examined using naturally aged 76 to 78-week old female C57BL/6J mice. For an additional 12 weeks, the novel tetrapeptides PEP006, PEP007, PEP008, PEP009, and PEP010 or novel tripeptides PEP011, PEP012, and PEP013 were each dissolved in PBS buffer at a concentration of 0.2 μg/150 μL and then orally administered to the naturally aged mice by 150 μL per mouse at the same time until the end of the test. To the control group, PBS buffer was orally administered in the same manner. For all animals, general symptoms were observed immediately before administration at the start of administration, and grip strength was measured at the 11th week of administration in order to analyze muscle strength attenuation. […]

Molecule | Ifnγ gene expression in liver tissue [1] | Il-1p gene expression in liver tissue [1] | Il-6 gene expression in liver tissue [1] | Tnfα gene expression in liver tissue [1] | grip strength [2] | GC (gastrocnemius) muscle weight [2] | TA (tibialis anterior) muscle weight [2] | soleus muscle weight [2] | 11-10, which is an anti-inflammatory index (liver gene expression) [1] | muscle strength (grip strength) ([2]; 10th week of administration) | IGF-1 gene expression in GC muscle ([2]; 10th week of administration) | Il-1rn, additional anti-inflammatory index (liver gene expression) [1] | muscle strength (grip strength) ([2]; 16th week of administration) | muscle fibers with a size of 2,000 μm^2 or more in the TA muscle ([2]; laminin immunostaining) | number of muscle fibers with a cross-sectional size of 500 μm^2 or less in the TA muscle ([2]; laminin immunostaining) | average size of all muscle fibers [2]
IGAY (PEP008) | decreased close to a significant level | significantly decreased | tended to decrease | significantly decreased | significantly increased | tended to increase | tended to increase | tended to increase |  |  |  |  |  |  |  | 
AVSSI (PEP002) |  | significantly decreased |  |  |  |  |  |  | tended to increase close to a significant level |  |  |  |  |  |  | 
AQS [PEP011] | tended to decrease | tended to decrease |  |  | significantly increased | tended to increase | tended to increase | tended to increase |  |  |  |  |  |  |  | 
AGS [PEP012] |  | tended to decrease |  |  | significantly increased | tended to increase | tended to increase | tended to increase |  |  |  |  |  |  |  | 
RGAY (PEP007) | tended to decrease |  | tended to decrease | significantly decreased | increased to a significant level | tended to increase | tended to increase | increased to a significant level |  |  |  |  |  |  |  | 
AVSSIKGAY (PEP001) |  | decreased close to a significant level |  |  |  | significantly increased | increased | significantly increased | significantly increased | significantly increased | tended to increase |  |  |  |  | 
KGAY (PEP003) |  | significantly decreased |  | significantly decreased |  |  |  |  | significantly increased |  |  |  |  |  |  | 
SGAY (PEP009) | tended to decrease | significantly decreased | tended to decrease | tended to decrease | significantly increased | tended to increase | tended to increase | tended to increase |  |  |  |  |  |  |  | 
AVS (AVSSIKGAY) [PEP004] |  | decreased close to a significant level |  | significantly decreased |  |  |  |  | significantly increased |  |  |  |  |  |  | 
AGAY (PEP006) |  |  |  | tended to decrease | significantly increased | tended to increase | tended to increase | tended to increase |  |  |  |  |  |  |  | 
GAY [PEP005] |  | significantly decreased |  | significantly decreased |  |  |  |  | significantly increased |  |  |  |  |  |  | 
VGAY (PEP010) | tended to decrease | significantly decreased | tended to decrease | tended to decrease | significantly increased | tended to increase | tended to increase | tended to increase |  |  |  |  |  |  |  | 
AIS [PEP013] | tended to decrease | significantly decreased |  |  | significantly increased | tended to increase | tended to increase | tended to increase |  |  |  |  |  |  |  | 
Amuc_1409: SEQ ID NO: 15, functional fragment obtained by eliminating the leader sequence from SEQ ID NO: 14; protein derived from Akkermansia muciniphila (protein, Amuc_1409_fragment, protein derived from Akkermansia muciniphila) IPESSVPAAAVSSIKGAYPNAGPIEWDSEMHGMERIYEAEFRINGFQFDVKIAPDGKIVRIKEEIAASSLPEAVRASVLKRYPGCRIKEAEKITEGELVRYKVEVADSRDDYDVLIAPDGNILHVDR |  | significantly decreased |  |  |  | increased | increased | significantly increased | significantly increased |  |  | significantly increased | significantly increased | significantly increased | decreased | significantly increased
